The source of these data is patent US20060189576A1, “Substituted vitamin d analogues and their therapeutic uses” (priority 2003, published 2006).

Read-outs that look alike come from different tables or passages of the source. Marks after values point to notes of the source that are not given here.

One series addresses T1, hDBP (Homo sapiens, UniProt P02774).
T1 sequence (P02774 17-474): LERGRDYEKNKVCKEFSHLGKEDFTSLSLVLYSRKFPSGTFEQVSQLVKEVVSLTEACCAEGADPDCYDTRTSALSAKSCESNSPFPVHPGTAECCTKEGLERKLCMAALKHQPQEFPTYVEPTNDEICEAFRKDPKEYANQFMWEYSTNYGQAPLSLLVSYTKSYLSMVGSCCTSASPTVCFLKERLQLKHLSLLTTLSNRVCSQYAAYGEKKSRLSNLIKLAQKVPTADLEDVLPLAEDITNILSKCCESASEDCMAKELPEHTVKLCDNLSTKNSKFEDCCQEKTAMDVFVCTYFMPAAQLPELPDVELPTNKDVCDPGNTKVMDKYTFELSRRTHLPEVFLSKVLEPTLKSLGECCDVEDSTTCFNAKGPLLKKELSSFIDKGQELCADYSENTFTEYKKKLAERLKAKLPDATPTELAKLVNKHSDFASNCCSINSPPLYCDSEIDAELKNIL
The experiment in a line: Affinity for human DBP: competition with [3H]1α,25(OH)2D3. Type of series: binding. The following applies: percentage activity (at 50% of the dose response) in comparison with 1α,25(OH)2D3 (=100%). As for the experimental part: Phase separation was then obtained by the addition of 0.5 ml of cold dextran-coated charcoal.

A further series deals with HL-60 cells. Description: HL-60 cell differentiation (NBT reduction assay). The class given is cell-based. As for the experimental part:
To evaluate the effect on cell differentiation HL-60 cells were seeded at 4×10^4 cells/ml in 25 cm^2 Falcon tissue chambers using RPMI 1640 medium supplemented with 20% FCS and gentamycin (50 μg/ml) in a final volume of 5 ml. Cultures were maintained at 37° C. in a humidified atmosphere of 5% CO2 in air. […] After 4 days of culture, the dishes were shaken to lose adherent cells. Cells were washed twice in RPMI, counted and assayed for differentiation markers (NBT reduction assay). Superoxide production was measured as NBT reducing activity as described previously (Ostrem V. K et al. Proc Natl Acad Sci USA 84: 2610-2614, 1987). HL-60 cells at 1×10^6/ml were mixed with an equal volume of freshly prepared solution of phorbol 12-myristate 13-acetate (200 ng/ml) and […] and incubated for 30 min at 37° C. The percentage of cells containing black formazan deposits was determined using a hemacytometer.

Series [1] has as its system MCF-7 cells. Description: MCF-7 cell proliferation ([3H]thymidine incorporation). Type of series: cell-based. As for the experimental part: To evaluate the effect of on cell proliferation, malignant MCF-7 cells were cultured in DMEM/nut. mix. […] Cultures were maintained at 37° C. in a humidified atmosphere of 5% CO2 in air. MCF-7 cells were seeded at 5×10^3 cells/well in the above described medium in 96-well microtiter plates in a final volume of 0.2 ml per well. Triplicate cultures were performed. […] Then, 1 μCi [^3H]thymidine was added to each well and cells were harvested after 4 h incubation with a Packard harvester and measured by the Packard Topcount System (Packard, Meriden, USA).
For orientation: Dividing cells build labelled thymidine or BrdU into new DNA.

Series [2] is described as follows: Primary prevention of osteoporosis in ovariectomized mice. The class given is in vivo, C3H female mice. Here is the method:
12 week old C3H female mice are subjected to bilateral ovariectomy or sham surgery. The animals are treated with the analog or vehicle by oral gavage or intraperitoneally. Dosing is started 3 days after sugery and continued for 8-9 weeks.
(§1) Before the first treatment in vivo measurements are performed to determine bone mineral density (BMD), bone mineral content (BMC) of total body and spine by dual-energy X-ray absorptiometry (DXA). Urine and serum is collected to measure calcium levels together with collagen cross-links in urine and osteocalcin in serum. The animals are weighed regularly during the experimental period. After 4 weeks treatment urine and serum is again collected and biochemical parameters are determined. At the end of the experiment (8-9 weeks) urine is collected and DXA measurement is performed in vivo to determine BMD and BMC. After killing the animals tibiae and femora are dissected The following biochemical parameters are investigated: serum calcium, serum osteocalcin, urine calcium, urine collagen cross-links, femur calcium.
(§2) Tibiae are used for histomorphometric analysis and femurs for measurement of cortical and trabecular volumetric density and geometry by peripheral quantitative computed tomography (pQCT) ex vivo.

The nature of series [3]: Secondary prevention or treatment of osteoporosis in ovariectomized mice. Type of series: in vivo, C3H female mice. Here is the method: 12 week old C3H female mice are subjected to bilateral ovariectomy or sham surgery. The animals are treated with the analog or vehicle by oral gavage or intraperitoneally. Dosing is started 4 weeks after sugery and continued for 4-10 weeks.
as §1, with “dual-energy,” for “dual-energy”, “determined and” for “determined. At the end of the experiment (8-9 weeks)”
as §2

The next series has as its target T2, vitamin D receptor (Sus scrofa, UniProt A3RGC1).
T2 sequence (A3RGC1 1-427): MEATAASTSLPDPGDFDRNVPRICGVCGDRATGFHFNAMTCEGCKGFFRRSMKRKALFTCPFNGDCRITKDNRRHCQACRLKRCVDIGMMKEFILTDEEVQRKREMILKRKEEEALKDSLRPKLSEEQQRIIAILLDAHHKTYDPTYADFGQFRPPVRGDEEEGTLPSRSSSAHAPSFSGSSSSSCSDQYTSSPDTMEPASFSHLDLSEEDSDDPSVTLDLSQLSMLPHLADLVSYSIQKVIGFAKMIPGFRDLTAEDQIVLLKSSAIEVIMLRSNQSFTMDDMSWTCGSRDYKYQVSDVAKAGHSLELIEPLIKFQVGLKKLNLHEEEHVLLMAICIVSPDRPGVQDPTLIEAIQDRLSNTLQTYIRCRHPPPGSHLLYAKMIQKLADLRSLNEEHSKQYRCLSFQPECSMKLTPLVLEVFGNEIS
The following applies: percentage activity (at 50% of the dose response) in comparison with 1α,25(OH)2D3 (=100%).

The conditions of series [4]: for Femur calcium: NMRI mice.
Procedure: Eight weeks old, male NMRI mice were obtained from the Proefdierencentrum of Leuven (Belgium) and fed a vitamin D-replete diet (0.2% calcium, 1% phosphate, 2000 U vitamin D/kg; Hope Farms, Woerden, The Netherlands). […] The control group was injected with vehicle (arachis oil). The average weight of each group of 6 mice was determined at the beginning and at the end of the experiment. The following parameters were evaluated: serum calcium, serum osteocalcin, femur calcium and urinary calcium. Serum and urinary calcium were measured by a microcolorimetric assay (Sigma, St. Louis, Mo.). Femurs were removed and femur calcium content was measured in HCl-dissolved bone ash (obtained by heating for 24 h in an oven at 100° C.), using the same technique as for serum and urinary calcium.
For series [5] the following is noted: background, well established; cited from earlier work.
Series [6] relates to MCF-7 cells. The following applies: known superagonists; data published in J Bone Mineral Res 15 (2): 237-252 (2000); cited from earlier work.
The conditions of series [7]: known superagonists; data published in J Bone Mineral Res 15 (2): 237-252 (2000); cited from earlier work.

Procedure for vitamin D receptor: The incubation was performed at 4° C. for 20 h and phase separation was obtained by addition of dextran-coated charcoal.

Take “14-epi-2α-methyl-19-nor-23-yn-1α,25-dihydroxyvitamin D3 [Compound 108]”: on hDBP, the “AFFINITY STUDIES DBP” value was 0.3%. In addition, in the series with HL-60 cells (HL 60 cells), the “prodifferentiating activity, times that of 1α,25(OH)2D3” value is 40 times and the “prodifferentiating effect (in words)” value is “very potent”. The “IN VITRO STUDIES HL 60” value in the series on HL-60 cells (potency to differentiate HL 60 cells, percentage activity vs 1α,25(OH)2D3 (=100%)) is 4000%. In the series with MCF-7 cells [1] (MCF-7 cells), the “antiproliferative activity, times that of 1α,25(OH)2D3” value was found to be 120 times and the “antiproliferative effect (in words)” value is recorded as “very potent”. The “IN VITRO STUDIES MCF-7” value with MCF-7 cells [1] (antiproliferative action, percentage activity vs 1α,25(OH)2D3 (=100%)) is recorded as 12000%. Also, the “Antiproliferative activity on MCF-7 cells” value in the series on MCF-7 cells [1] (percentage activity (at 50% of the dose response) vs 1α,25(OH)2D3 (=100%)) was determined as 12000%. In addition, the “serum calcium or urinary calcium levels” value in [2] (after at least four weeks, more particularly 8 weeks of treatment) is “not significantly increased”. In series [2] (ovariectomized mice, dosing from 3 days after surgery for 8-9 weeks), the “BMD, BMC and femur calcium” value is listed as “increase”. Besides, in series [3] (after four weeks, more particularly 8 weeks of treatment), the “serum calcium or urinary calcium levels” value is “not significantly increased”. Besides, the “BMD, BMC and femur calcium concentration” value in [3] (ovariectomized mice, dosing from 4 weeks after surgery, compared to levels prior to treatment) is recorded as “increase”. Besides, the “AFFINITY STUDIES VDR” value at vitamin D receptor is 80%. In addition, in series [4] (1 μg/kg/d, 7 consecutive days), the “increase of calcium levels in bone compared to 0.1 μg/kg/d 1,25(OH)2D3” value was 18%, the “increase of calcium levels in bone compared to 0.2 μg/kg/d 1,25(OH)2D3” value is reported as 14%, the “increase of calcium levels in bone compared to 0.4 μg/kg/d 1,25(OH)2D3” value was 20% and the “increase of calcium levels in bone compared to vehicle treated mice” value was 10%. Besides, the Femur calcium in series [4] (0.4 μg/kg/d intraperitoneally, 7 consecutive days) was determined as 9.57 ± 0.26 mg. Besides, the Femur calcium in series [4] (1 μg/kg/d intraperitoneally, 7 consecutive days) is 10.52 ± 0.43*^,$ mg. Moreover, in [4] (mice, daily intraperitoneal injection 7 consecutive days, percentage activity vs 1α,25(OH)2D3 (=100%)), the “IN VIVO STUDIES Osteocalcin serum” value is 4%. In series [4] (mouse, in vivo, ip), the “IN VIVO STUDIES Calcium serum” value is recorded as 2%, the “IN VIVO STUDIES Calcium urine” value is 4% and the “Serum calcium in mice” value turned out to be 2%.
In the case of `C[C@H](CCCC(C)(C)O)[C@H]1CC[C@H]2/C(=C/C=C3C[C@@H](O)C[C@H](O)C3)CCC[C@]12C` [19-nor-1α,25-dihydroxyvitamin D3], the “calcemic effect, % of that of 1α,25(OH)2D3” value in series [5] was 10%.
In the case of `C=C1/C(=C\C=C2/CCC[C@]3(C)[C@@H]([C@H](C)/C=C/[C@@H](O)C4CC4)CC[C@@H]23)C[C@@H](O)C[C@@H]1O` [MC 903], in the series on MCF-7 cells [6], the “Antiproliferative activity on MCF-7 cells” value was 100-200%. For the same compound, the “Serum calcium in mice” value in series [7] is on record as 1%.
Turning to `C=C1/C(=C\C=C2/CCC[C@]3(C)[C@@H]([C@H](C)OCCC(C)(C)O)CC[C@@H]23)C[C@@H](O)C[C@@H]1O` [OCT], in the series on MCF-7 cells [6], the “Antiproliferative activity on MCF-7 cells” value was 100-150%. Moreover, the “Serum calcium in mice” value in series [7] is given as 0.3%.
